The record followed here is patent US7713994B2 (Wyeth LLC, priority 2005, dated 2010).

Each structure is given as a SMILES string. A value given as a limit tells only on which side of the number the result lay.

As usually defined, the IC50 is the concentration that gives 50% inhibition.

The test system of one assay is HCT-116. In words: Cytotoxicity assay (SRB), HCT-116. The assay is classed as cell-based. To be noted: Homo sapiens, HCT-116, 72 h, HCT116 cells, 3 days, SRB; read-out: In Vitro Cellular Activity IC50 HCT116. In a few lines:
(§1)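 Cells seeded overnight at 37 °C, 7% CO2 (BT474 12000, HCT-116 4000, LoVo and MCF-7 6000 cells/well) in RPMI 1640 with 5% FBS, then exposed to compound dilutions for 3 days (BT474 6 days). Survival versus untreated controls by TCA fixation and SRB staining, absorbance 540 nm.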

The target in another assay is T1, cyclin D1/cdk 4 enzyme (Homo sapiens, UniProt P11802).
T1 construct: made in house; host or cells: Sf9 insect cells, recombinant baculovirus
In words: CDK4 ELISA kinase assay (phospho-Rb ser 795 detection). The assay is classed as biochemical. To be noted: In Vitro Enzyme Assay, cyclin D1/cdk 4, read-out: CDK4 IC50. The method, boiled down: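 Sf9-derived cyclin/CDK, 200 μM ATP, immobilized GST-Rb; 30° C/1 h. Detection: phospho-Ser795 Ab, HRP, TMB, OD450.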
(ELISA stands for enzyme-linked immunosorbent assay.)

The subject of a further assay is BT474. In words: Cytotoxicity assay (SRB), BT474. The assay is classed as cell-based. To be noted: Homo sapiens, BT-474, 144 h, BT474 cells, 6 days, SRB; read-out: In Vitro Cellular Activity IC50 BT474. The method, boiled down:
as §1

The test system of a further assay is MCF-7. In words: Cytotoxicity assay (SRB), MCF-7. In kind it is cell-based. To be noted: Homo sapiens, MCF7, 72 h, MCF-7 cells, 3 days, SRB; read-out: In Vitro Cellular Activity IC50 MCF-7. The method, boiled down:
as §1

A further assay has as its system LoVo. In words: Cytotoxicity assay (SRB), LoVo. The assay is classed as cell-based. To be noted: Homo sapiens, LoVo, 72 h, LoVo cells, 3 days, SRB; read-out: In Vitro Cellular Activity IC50 LOVO. In a few lines: as §1

T1 sequence (P11802 whole entry, species assumed): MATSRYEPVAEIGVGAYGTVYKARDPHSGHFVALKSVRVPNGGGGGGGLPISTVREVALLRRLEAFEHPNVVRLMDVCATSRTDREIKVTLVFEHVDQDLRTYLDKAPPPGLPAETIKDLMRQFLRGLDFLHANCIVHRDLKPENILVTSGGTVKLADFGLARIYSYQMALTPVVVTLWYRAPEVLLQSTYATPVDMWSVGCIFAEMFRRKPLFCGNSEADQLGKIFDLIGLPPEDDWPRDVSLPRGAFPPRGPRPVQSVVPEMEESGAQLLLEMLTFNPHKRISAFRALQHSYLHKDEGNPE
T1 sequence (P24385 whole entry partner, species assumed): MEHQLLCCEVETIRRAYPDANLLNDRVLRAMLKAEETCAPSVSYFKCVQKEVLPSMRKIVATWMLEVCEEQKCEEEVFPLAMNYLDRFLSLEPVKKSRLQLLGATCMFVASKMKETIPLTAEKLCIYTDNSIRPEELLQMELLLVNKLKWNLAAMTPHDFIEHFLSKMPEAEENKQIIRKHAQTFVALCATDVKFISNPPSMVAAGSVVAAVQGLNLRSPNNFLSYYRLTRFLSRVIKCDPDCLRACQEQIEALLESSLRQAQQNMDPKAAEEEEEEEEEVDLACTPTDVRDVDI

For `CN1CCN(c2ccc(NC=C3C(=O)NC(=O)c4ccc(-c5cccc(C=CC(=O)O)c5)cc43)cc2)CC1` [Example 699, 3-[3-(4-{[4-(4-Methyl-piperazin-1-yl)-phenylamino]-methylene}-1,3-dioxo-1,2,3,4-tetrahydro-isoquinolin-6-yl)-phenyl]-acrylic acid], the IC50 with HCT-116 is 22.9 µM; at cyclin D1/cdk 4 enzyme, 2.9 µM; in the assay with BT474, > 50 µM; in the assay on MCF-7, > 50 µM; with LoVo, > 50 µM.

`CN1CCN(c2ccc(NC=C3C(=O)NC(=O)c4ccc(-c5ccccc5Cl)cc43)cc2)CC1` [Example 691, 6-(2-Chloro-phenyl)-4-{[4-(4-methyl-piperazin-1-yl)-phenylamino]-methylene}-4H-isoquinoline-1,3-dione]: the 50% inhibitory concentration (IC50) is 1.3 µM in the assay with HCT-116; 8.3 µM at cyclin D1/cdk 4 enzyme; 3 µM in the assay with BT474; 2.8 µM in the assay on MCF-7; 2.2 µM in the assay on LoVo.

With `CC(=O)c1ccccc1-c1ccc2c(c1)C(=CNc1ccc(CC#N)cc1)C(=O)NC2=O` [Example 711, (4-{[6-(2-Acetyl-phenyl)-1,3-dioxo-2,3-dihydro-1H-isoquinolin-4-ylidenemethyl]-amino}-phenyl)-acetonitrile], the IC50 was > 50 µM in the assay on HCT-116; 9.8 µM on cyclin D1/cdk 4 enzyme; 46.7 µM in the assay with BT474; > 50 µM in the assay on MCF-7; > 50 µM with LoVo.

Take `CN1CCN(c2ccc(NC=C3C(=O)NC(=O)c4ccc(C=CCn5ccnc5)cc43)cc2)CC1` [Example 679, 6-(3-Imidazol-1-yl-propenyl)-4-{[4-(4-methyl-piperazin-1-yl)-phenylamino]-methylene}-4H-isoquinoline-1,3-dione]: the IC50 in the assay with HCT-116 was 6.4 µM; on cyclin D1/cdk 4 enzyme, 4.9 µM; with BT474, 15.5 µM; with MCF-7, 9.2 µM; in the assay with LoVo it was 6.9 µM.

With `N#CCc1ccc(NC=C2C(=O)NC(=O)c3ccc(C=Cn4ccnc4)cc32)cc1` [Example 651, (4-{[6-(2-Imidazol-1-yl-vinyl)-1,3-dioxo-2,3-dihydro-1H-isoquinolin-4-ylidenemethyl]-amino}-phenyl)-acetonitrile], the IC50 in the assay on HCT-116 was > 50 µM; at cyclin D1/cdk 4 enzyme, 3 µM; in the assay with BT474 it was > 50 µM; in the assay with MCF-7, 37.1 µM; in the assay on LoVo it was > 50 µM.

As to `CN1CCN(c2ccc(NC=C3C(=O)NC(=O)c4ccc(C=Cc5ccc(C(F)(F)F)cc5)cc43)cc2)CC1` [Example 729, 4-{[4-(4-Methyl-piperazin-1-yl)-phenylamino]-methylene}-6-[2-(4-trifluoromethyl-phenyl)-vinyl]-4H-isoquinoline-1,3-dione], the half-maximal inhibitory concentration (IC50) in the assay on HCT-116 was 1.4 µM; on cyclin D1/cdk 4 enzyme, 10.9 µM; in the assay with BT474, 4.7 µM; in the assay on MCF-7, 2.1 µM; with LoVo, 17.9 µM.

As to `NS(=O)(=O)c1ccc(CNC=C2C(=O)NC(=O)c3ccc(-c4ccc5ccccc5c4)cc32)cc1` [Example 632, 4-{[(6-Naphthalen-2-yl-1,3-dioxo-2,3-dihydro-1H-isoquinolin-4-ylidenemethyl)-amino]-methyl}-benzenesulfonamide], the IC50 was > 50 µM with HCT-116; 3.1 µM at cyclin D1/cdk 4 enzyme; > 50 µM in the assay with BT474; 17.3 µM in the assay with MCF-7; 44.6 µM in the assay on LoVo.

Turning to `COc1ccc(-c2ccc3c(c2)C(=CNc2ccc(N4CCN(C)CC4)cc2)C(=O)NC3=O)cc1` [Example 682, 6-(4-Methoxy-phenyl)-4-{[4-(4-methyl-piperazin-1-yl)-phenylamino]-methylene}-4H-isoquinoline-1,3-dione], the IC50 came out at 1.5 µM in the assay with HCT-116; 3.4 µM at cyclin D1/cdk 4 enzyme; 2.5 µM with BT474; 4.4 µM with MCF-7; 5.2 µM with LoVo.

As to `CN1CCN(c2ccc(NC=C3C(=O)NC(=O)c4ccc(C=CCO)cc43)cc2)CC1` [Example 724, 6-(3-Hydroxy-propenyl)-4-{[4-(4-methyl-piperazin-1-yl)-phenylamino]-methylene}-4H-isoquinoline-1,3-dione], the IC50 is 5.8 µM in the assay with HCT-116; 3.6 µM on cyclin D1/cdk 4 enzyme; 16.9 µM in the assay with BT474; 14.8 µM in the assay on MCF-7; 10.4 µM in the assay on LoVo.

Take `CN1CCN(c2ccc(NC=C3C(=O)NC(=O)c4ccc(-c5ccc(Cl)cc5)cc43)cc2)CC1` [Example 689, 6-(4-Chloro-phenyl)-4-{[4-(4-methyl-piperazin-1-yl)-phenylamino]-methylene}-4H-isoquinoline-1,3-dione]: the IC50 was 3 µM in the assay on HCT-116; 4.7 µM at cyclin D1/cdk 4 enzyme; 3.4 µM with BT474; 3.8 µM with MCF-7; 6.7 µM with LoVo.

As to `NS(=O)(=O)c1ccc(CNC=C2C(=O)NC(=O)c3ccc(-c4ccccc4Cl)cc32)cc1` [Example 751, 4-({[6-(2-Chloro-phenyl)-1,3-dioxo-2,3-dihydro-1H-isoquinolin-4-ylidenemethyl]-amino}-methyl)-benzenesulfonamide], the IC50 was determined as 6.3 µM in the assay with HCT-116; 2.5 µM on cyclin D1/cdk 4 enzyme; 7.1 µM in the assay with BT474; 8.2 µM with MCF-7; 10.1 µM in the assay with LoVo.

Consider `N#CCc1ccc(NC=C2C(=O)NC(=O)c3ccc(-c4ccccc4Cl)cc32)cc1` [Example 714, (4-{[6-(2-Chloro-phenyl)-1,3-dioxo-2,3-dihydro-1H-isoquinolin-4-ylidenemethyl]-amino}-phenyl)-acetonitrile], for which the IC50 in the assay with HCT-116 was > 50 µM; at cyclin D1/cdk 4 enzyme, 5.5 µM; in the assay on BT474 it was > 50 µM; with MCF-7, 31.2 µM; in the assay on LoVo, > 50 µM.

Turning to `N#CCc1ccc(NC=C2C(=O)NC(=O)c3ccc(-c4ccc5[nH]ccc5c4)cc32)cc1` [Example 629, (4-{[6-(1H-Indol-5-yl)-1,3-dioxo-2,3-dihydro-1H-isoquinolin-4-ylidenemethyl]-amino}-phenyl)-acetonitrile], the IC50 was > 50 µM in the assay on HCT-116; 5.5 µM on cyclin D1/cdk 4 enzyme; > 50 µM with BT474; 50 µM with MCF-7; > 50 µM in the assay with LoVo.

Consider `N#CCc1ccc(NC=C2C(=O)NC(=O)c3ccc(-c4ccccc4F)cc32)cc1` [Example 706, (4-{[6-(2-Fluoro-phenyl)-1,3-dioxo-2,3-dihydro-1H-isoquinolin-4-ylidenemethyl]-amino}-phenyl)-acetonitrile], for which the concentration for half-maximal inhibition (IC50) in the assay with HCT-116 was > 50 µM; at cyclin D1/cdk 4 enzyme, 7.3 µM; in the assay with BT474, > 50 µM; with MCF-7, 40.4 µM; in the assay on LoVo, > 50 µM.

In the case of `N#CCc1ccc(NC=C2C(=O)NC(=O)c3ccc(-c4cc5ccccc5o4)cc32)cc1` [Example 626, {4-[(6-Benzofuran-2-yl-1,3-dioxo-2,3-dihydro-1H-isoquinolin-4-ylidenemethyl)-amino]-phenyl}-acetonitrile], the IC50 is > 50 µM with HCT-116; 3.7 µM at cyclin D1/cdk 4 enzyme; > 50 µM with BT474; 34.1 µM in the assay with MCF-7; > 50 µM with LoVo.

Take `Cc1cccc(-c2ccc3c(c2)C(=CNCc2ccc(S(N)(=O)=O)cc2)C(=O)NC3=O)c1` [Example 753, 4-{[(1,3-Dioxo-6-m-tolyl-2,3-dihydro-1H-isoquinolin-4-ylidenemethyl)-amino]-methyl}-benzenesulfonamide]: the IC50 in the assay on HCT-116 was 14.4 µM; at cyclin D1/cdk 4 enzyme it was 3.4 µM; in the assay on BT474, 28.9 µM; with MCF-7, 13.3 µM; in the assay with LoVo it was 23.4 µM.

As for `COc1ccc(-c2ccc3c(c2)C(=CNc2ccc(CC#N)cc2)C(=O)NC3=O)cc1` [Example 701, (4-{[6-(4-Methoxy-phenyl)-1,3-dioxo-2,3-dihydro-1H-isoquinolin-4-ylidenemethyl]-amino}-phenyl)-acetonitrile], the IC50 is > 50 µM in the assay with HCT-116; 6.6 µM on cyclin D1/cdk 4 enzyme; 39.6 µM in the assay on BT474; 34.4 µM with MCF-7; > 50 µM with LoVo.

For the compound `CN1CCN(c2ccc(NC=C3C(=O)NC(=O)c4ccc(-c5cc6ccccc6o5)cc43)cc2)CC1` [Example 669, 6-Benzofuran-2-yl-4-{[4-(4-methyl-piperazin-1-yl)-phenylamino]-methylene}-4H-isoquinoline-1,3-dione], the IC50 came to 2.9 µM in the assay on HCT-116; 9.6 µM on cyclin D1/cdk 4 enzyme; 2 µM in the assay with BT474; 2.9 µM in the assay with MCF-7; 20.6 µM in the assay on LoVo.
